# Tests used:
# Format in all cases: in vivo
# [1] = system: larvae of the banded cucumber beetle (Diabrotica balteata); experiment: Diabrotica balteata spray test; details: 100 g/ha (=32 μg/well), wheat seeds, after 7 days
# Experimental: Diabrotica balteata—Spray Test
# Solvent: 78.0 parts by weight of acetone • • 1.5 parts by weight of dimethylformamide
# (§1) Emulsifier: alkylarylpolyglycol ether
# To produce a suitable preparation of active compound, 1 part by weight of active compound is mixed with the stated amount of solvent, and the concentrate is diluted with water, containing an emulsifier concentration of 1000 ppm, to the desired concentration. Further test concentrations are prepared by dilution with emulsifier containing water.
# Soaked wheat seeds (Triticum aestivum) are placed in a multiple well plate filled with agar and some water and are incubated for 1 day to germinate (5 seeds per well). The germinated wheat seeds are sprayed with a test solution containing the desired concentration of the active ingredient. Afterwards each unit is infected with 10-20 larvae of the banded cucumber beetle (Diabrotica balteata).
# After 7 days efficacy in % is determined. 100% means all the seedlings have grown up like in the untreated, uninfected control; 0% means none of the seedlings have grown.
# [2] = system: Rhipicephalus (Boophilus) microplus larvae (strain Parkhurst, resistant against synthetic pyrethroids); experiment: Rhipicephalus (Boophilus) microplus in-vitro contact test, larval cattle tick; details: 1 μg/cm^2 (=100 g/ha), after 48 hours; for pest or weed control at 1 µg/cm2: Rhipicephalus microplus, read-out: efficacy (larvae dead or moribund)
# Experimental: Rhipicephalus (Boophilus) Microplus—In-Vitro Contact Tests Larval Cattle Tick (Strain Parkhurst, Resistant Against Synthetic Pyrethroids
# (§2) 9 mg compound is solved in 1 mL acetone and diluted with acetone to the desired concentration. 250 μL of the test solution is filled in 25 mL glass test tubes and homogeneously distributed on the inner walls by rotation and tilting on a shaking device (2 h at 30 rpm). With a compound concentration of 900 ppm, an inner surface of 44.7 cm^2 and a homogeneous distribution, a dose of 5 μg/cm^2 is achieved.
# After the solvent has evaporated, each test tube is filled with 20-50 cattle tick larvae (Rhipicephalus microplus), closed with a perforated lid and incubated in a horizontal position at 85% relative humidity and 27° C. in an incubator. After 48 hours efficacy is determined. The larvae are patted on the ground of the tubes and negative geotactic behavior is recorded.
# [3] = system: adult cat fleas (Ctenocephalides felis); experiment: Ctenocephalides felis in-vitro contact test, adult cat flea; details: 1 μg/cm^2 (=100 g/ha), after 48 hours
# Experimental: Ctenocephalides Felis—In-Vitro Contact Tests Adult Cat Flea
# as §2
# After the solvent has evaporated, each test tube is filled with 5-10 adult cat fleas (Ctenocephalides felis), closed with a perforated lid and incubated in a lying position at room temperature and relative humidity. After 48 hours efficacy is determined. The fleas are patted on the ground of the tubes and are incubated on a heating plate at 45-50° C. for at most 5 minutes. Immotile or uncoordinated moving fleas, which are not able to escape the heat by climbing upwards, are marked as dead or moribund.
# An efficacy of 100% means all fleas are dead or moribund; 0% means no fleas are dead or moribund.
# [4] = system: adult brown dog ticks (Rhipicephalus sanguineus); experiment: Rhipicephalus sanguineus in-vitro contact test, adult brown dog ticks; details: 1 μg/cm^2 (=100 g/ha), after 48 hours
# Experimental: Rhipicephalus sanguineus—In-Vitro Contact Tests with Adult Brown Dog Ticks
# as §2
# After the solvent has evaporated, each test tube is filled with 5-10 adult brown dog ticks (Rhipicephalus sanguineus), closed with a perforated lid and incubated in a lying position at room temperature and relative humidity. After 48 hours efficacy is determined. The ticks are patted on the ground of the tubes and are incubated on a heating plate at 45-50° C. for at most 5 minutes. Immotile or uncoordinated moving ticks, which are not able to escape the heat by climbing upwards, are marked as dead or moribund.
# An efficacy of 100% means all ticks are dead or moribund; 0% means no ticks are dead or moribund.
# [5] = system: fall armyworm larvae (Spodoptera frugiperda); experiment: Spodoptera frugiperda spray test (SPODFR); details: in Zea mays, 168 h
# Experimental: Spodoptera frugiperda—Spray Test
# Solvent: 78.0 parts by weight acetone • 1.5 parts by weight dimethylformamide
# as §1
# To produce a suitable preparation of active compound, 1 part by weight of active compound is mixed with the stated amount of solvents and is diluted with water, containing an emulsifier concentration of 1000 ppm, to the desired concentration. Further test concentrations are prepared by dilution with emulsifier containing water.
# Maize (Zea mays) leaf sections are sprayed with a preparation of the active ingredient of the desired concentration. Once dry, the leaf sections are infested with fall armyworm larvae (Spodoptera frugiperda).
# After 7 days mortality in % is determined. 100% means all caterpillars have been killed and 0% means none of the caterpillars have been killed.
# Spodoptera frugiperda—Spray Test (SPODFR
# After the specified period of time, mortality in % is determined. 100% means all caterpillars have been killed and 0% means none of the caterpillars have been killed.
Compound,efficacy (seedlings grown) [1] [%],efficacy (larvae dead or moribund) [2] [%],also measured
C[C@H](NC(=O)c1cc(OC(F)(F)F)cc(S(C)(=O)=O)c1)c1ncnn1-c1cnc(C(=O)N(C)CC#N)cn1 [Example I-104],100,,
CCN(C)C(=O)c1cnc(-n2nc(C)nc2[C@H](C)NC(=O)c2cc(OC(F)(F)F)cc(OC(F)(F)F)c2)cn1 [Example I-038],100,100,efficacy (fleas dead or moribund) [3]: 100%; efficacy (ticks dead or moribund) [4]: 100%
C[C@H](NC(=O)c1cc(Cl)cc(S(F)(F)(F)(F)F)c1)c1nc(C2CC2)nn1-c1cnc(C(N)=O)cn1 [Example I-074],80,,
Cc1nc([C@H](C)NC(=O)c2cc(OC(F)(F)F)cc(OC(F)(F)F)c2)n(-c2cnc(C(=O)N(C)CC#N)cn2)n1 [Example I-101],100,,
Cc1nc([C@H](C)NC(=O)c2cc(OC(F)(F)F)cc(S(C)(=O)=O)c2)n(-c2cnc(C(=O)N(C)C3CC3)cn2)n1 [Example I-040],,100,efficacy (fleas dead or moribund) [3]: 100%; efficacy (ticks dead or moribund) [4]: 100%
C[C@H](NC(=O)c1cc(OC(F)(F)F)cc(OC(F)(F)F)c1)c1ncnn1-c1cnc(C(=O)N(C)CC#N)cn1 [Example I-105],100,,
Cc1nc([C@H](C)NC(=O)c2cc(OC(F)(F)F)cc(S(C)(=O)=O)c2)n(-c2cnc(C(=O)NCC#N)cn2)n1 [Example I-087],100,,
Cc1nc([C@H](C)NC(=O)c2cc(OC(F)(F)F)cc(C3(C)CC3)c2)n(-c2cnc(C(=O)N(C)C)cn2)n1 [Example I-053],,100,efficacy (fleas dead or moribund) [3]: 80%; efficacy (ticks dead or moribund) [4]: 100%
C[C@H](NC(=O)c1cc(C(F)(F)F)cc(C(F)(F)F)c1)c1nc(C2CC2)nn1-c1cnc(C(=O)N(C)C2CC2)cn1 [Example I-058],100,,
C[C@H](NC(=O)c1cc(Br)cc(S(F)(F)(F)(F)F)c1)c1nc(C2CC2)nn1-c1cnc(C(N)=O)cn1 [Example I-075],100,,
C[C@H](NC(=O)c1cc(OC(F)(F)F)cc(OC(F)(F)F)c1)c1nc(C2CC2)nn1-c1cnc(C(N)=O)cn1 [Example I-062],100,100,
C[C@H](NC(=O)c1cc(C(F)(F)F)cc(C(F)(F)F)c1)c1nc(C2CC2)nn1-c1cnc(C(N)=O)cn1 [Example I-057],100,,
CNC(=O)c1cnc(-n2nc(C)nc2[C@H](C)NC(=O)c2cc(OC(F)(F)F)cc(C3CC3)c2)cn1 [Example I-045],100,100,efficacy (fleas dead or moribund) [3]: 100%; efficacy (ticks dead or moribund) [4]: 100%
C[C@H](NC(=O)c1cc(OC(F)F)cc(OC(F)F)c1)c1ncnn1-c1cnc(C(=O)NCC#N)cn1 [Example I-089],100,,
C[C@H](NC(=O)c1cc(OC(F)(F)F)cc(S(C)(=O)=O)c1)c1nc(C2CC2)nn1-c1cnc(C(N)=O)cn1 [Example I-095],100,,
C[C@H](NC(=O)c1cc(OC(F)(F)F)cc(S(C)(=O)=O)c1)c1ncnn1-c1cnc(C(=O)NCC#N)cn1 [Example I-086],100,,

Compound,efficacy (seedlings grown) [1] [%],efficacy (larvae dead or moribund) [2] [%],also measured
C[C@H](NC(=O)c1cc(C(F)(F)F)cc(C(F)(F)F)c1)c1nc(C2CC2)nn1-c1cnc(C(=O)NC2CC2)cn1 [Example I-056],100,100,
CNC(=O)c1cnc(-n2nc(C)nc2[C@H](C)NC(=O)c2cc(OC(F)(F)F)cc(C3(C#N)CC3)c2)cn1 [Example I-054],100,,
Cc1nc([C@H](C)NC(=O)c2cc(OC(F)(F)F)cc(OC(F)(F)F)c2)n(-c2cnc(C(=O)N(C)C)cn2)n1 [Example I-037],100,100,efficacy (fleas dead or moribund) [3]: 100%; efficacy (ticks dead or moribund) [4]: 100%
C[C@H](NC(=O)c1cc(OC(F)(F)F)cc(OC(F)(F)F)c1)c1ncnn1-c1cnc(C(=O)NC2CC2)cn1 [Example I-024],100,100,efficacy (ticks dead or moribund) [4]: 100%
CCNC(=O)c1cnc(-n2nc(C)nc2[C@H](C)NC(=O)c2cc(C(F)(F)F)cc(C(F)(F)F)c2)cn1 [Example I-013],,,"pest or weed control at 1 µg/cm2 [2]: 100%; pest or weed control at 1 µg/cm2, 100 g/ha ([4]; Rhipicephalus sanguineus, read-out: efficacy (ticks dead or moribund)): 100%; mortality at 100 g/ha [5]: 100%"
CCNC(=O)c1cnc(-n2nc(C)nc2[C@H](C)NC(=O)c2cc(OC(F)(F)F)cc(OC(F)(F)F)c2)cn1 [Example I-035],,,pest or weed control at 1 µg/cm2 [2]: 100%; mortality at 100 g/ha [5]: 100%
C[C@H](NC(=O)c1cc(Cl)cc(S(C)(=O)=O)c1)c1ncnn1-c1cnc(C(=O)NCC#N)cn1 [Example I-088],100,,
C[C@H](NC(=O)c1cc(OC(F)(F)C(F)F)cc(S(C)(=O)=O)c1)c1ncnn1-c1cnc(C(=O)NCC#N)cn1 [Example I-096],100,,
C[C@H](NC(=O)c1cc(OC(F)(F)F)cc(OC(F)(F)F)c1)c1nc(C2CC2)nn1-c1cnc(C(=O)N(C)C)cn1 [Example I-027],,,pest or weed control at 1 µg/cm2 [2]: 100%; mortality at 100 g/ha [5]: 83%
Cc1nc([C@H](C)NC(=O)c2cc(OC(F)(F)F)cc(C3(C#N)CC3)c2)n(-c2cnc(C(=O)N(C)C)cn2)n1 [Example I-055],,100,efficacy (fleas dead or moribund) [3]: 100%; efficacy (ticks dead or moribund) [4]: 80%
CNC(=O)c1cnc(-n2ncnc2[C@H](C)NC(=O)c2cc(Cl)cc(S(C)(=O)=O)c2)cn1 [Example I-098],,100,
C[C@H](NC(=O)c1cc(OC(F)F)cc(OC(F)F)c1)c1nc(C2CC2)nn1-c1cnc(C(N)=O)cn1 [Example I-070],100,,
Cc1nc([C@H](C)NC(=O)c2cc(OC(F)(F)F)cc(C3CC3)c2)n(-c2cnc(C(N)=O)cn2)n1 [Example I-046],100,100,
C[C@H](NC(=O)c1cc(OC(F)(F)F)cc(OC(F)(F)F)c1)c1ncnn1-c1cnc(C(=O)N(C)C)cn1 [Example I-025],100,100,efficacy (fleas dead or moribund) [3]: 100%; efficacy (ticks dead or moribund) [4]: 100%
C[C@H](NC(=O)c1cc(Br)cc(C(C)(C)F)c1)c1ncnn1-c1cnc(C(N)=O)cn1 [Example I-063],100,,

# Reference: US20240368125A1, “NOVEL PYRAZINYL-TRIAZOLE COMPOUNDS AS PESTICIDES” (Bayer Aktiengesellschaft, priority 2021, published 2024)
